Experimental data reported in PubChem BioAssay AID1671318.

Target: Tyrosine-protein kinase Lyn (Homo sapiens) (UniProt P07948)
Assay: LYN A kinase inhibition, dose response, biochemical, LYN A isoform, Z'-LYTE, FRET readout (AID 1671318)
Settings: Z'-LYTE FRET kinase assay, recombinant LYN A

Tyrosine-protein kinase Lyn (Homo sapiens), sequence (P07948 whole entry, looked up, canonical isoform): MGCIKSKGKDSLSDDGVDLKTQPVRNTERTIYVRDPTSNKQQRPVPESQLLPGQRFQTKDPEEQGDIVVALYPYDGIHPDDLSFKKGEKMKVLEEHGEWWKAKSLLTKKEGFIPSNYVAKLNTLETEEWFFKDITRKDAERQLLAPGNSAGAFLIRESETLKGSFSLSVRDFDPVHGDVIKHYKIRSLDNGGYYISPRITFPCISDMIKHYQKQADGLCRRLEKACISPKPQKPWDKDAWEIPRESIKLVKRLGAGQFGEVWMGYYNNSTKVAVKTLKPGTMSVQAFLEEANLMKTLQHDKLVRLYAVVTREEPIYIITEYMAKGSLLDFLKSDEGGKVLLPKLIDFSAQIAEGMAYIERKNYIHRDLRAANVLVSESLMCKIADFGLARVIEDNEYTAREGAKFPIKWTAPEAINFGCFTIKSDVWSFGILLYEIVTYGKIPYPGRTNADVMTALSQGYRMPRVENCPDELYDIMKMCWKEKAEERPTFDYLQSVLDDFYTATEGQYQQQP

IC50: 208 nM
SMILES: COc1cc2ncnc(Nc3cccc(Cl)c3)c2cc1OC
